In general, IC50 refers to the concentration that gives 50% inhibition.

Experiment [1] concerns the target T1, AHR (Homo sapiens, UniProt P35869).
T1 sequence (P35869 11-848): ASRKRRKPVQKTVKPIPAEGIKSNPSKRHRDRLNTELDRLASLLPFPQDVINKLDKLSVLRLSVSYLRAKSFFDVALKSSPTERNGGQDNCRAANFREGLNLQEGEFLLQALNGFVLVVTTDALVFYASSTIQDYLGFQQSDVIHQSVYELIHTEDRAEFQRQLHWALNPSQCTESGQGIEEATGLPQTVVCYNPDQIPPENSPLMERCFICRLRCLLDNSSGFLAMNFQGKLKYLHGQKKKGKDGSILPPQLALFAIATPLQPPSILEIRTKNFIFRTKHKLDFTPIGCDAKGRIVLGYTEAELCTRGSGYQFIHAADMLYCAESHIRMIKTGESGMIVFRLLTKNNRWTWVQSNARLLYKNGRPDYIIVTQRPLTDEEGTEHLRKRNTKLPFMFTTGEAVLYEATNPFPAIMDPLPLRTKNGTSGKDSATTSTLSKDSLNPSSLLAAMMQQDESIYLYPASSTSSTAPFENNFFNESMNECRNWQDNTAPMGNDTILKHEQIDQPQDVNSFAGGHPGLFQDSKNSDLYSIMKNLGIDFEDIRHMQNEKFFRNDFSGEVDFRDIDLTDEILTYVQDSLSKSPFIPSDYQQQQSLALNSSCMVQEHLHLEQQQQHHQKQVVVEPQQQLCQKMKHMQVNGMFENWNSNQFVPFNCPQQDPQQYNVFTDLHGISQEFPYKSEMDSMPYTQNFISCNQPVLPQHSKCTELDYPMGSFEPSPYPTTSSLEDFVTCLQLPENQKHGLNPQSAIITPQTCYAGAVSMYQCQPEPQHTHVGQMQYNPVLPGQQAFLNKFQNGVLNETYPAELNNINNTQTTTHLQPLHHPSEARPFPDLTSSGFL
Nature of the experiment: In vitro assay 2: agonism in human cell line (transactivation assay).

Experiment [2] deals with T1, AHR. Nature of the experiment: In vitro assay 1: antagonism in human cell line (transactivation assay, kynurenic acid prestimulated). The settings on record: Assay 1: AHR-luc Hum Antagonism IC50 [M], 150 μM kynurenic acid, 20 hours, firefly luciferase.
Method: Transactivation assays were carried out in U87 glioblastoma cells (ATCC) endogenously expressing AHR. In addition the cells were stably transfected with an AHR inducible firefly luciferase reporter gene construct that carried AHR-binding sites (DRE) in its promoter and a renilla reporter gene construct with constitutively active promoter. Kynurenic acid is an endogenous AHR activating ligand and was used to prestimulate test cells prior to testing the antagonistic properties of compounds.
In Vitro Assay 1: Antagonism in Human Cell Line
Cells in medium (tryptophan free RPMI, 1% FCS, 2 mM Glutamine) supplemented with 150 μM kynurenic acid were grown for 20 hours in absence (negative control) or presence of increasing concentrations of test compounds (typical dilutions: 72 pmol/L, 0.25 nmol/L, 0.89 nmol/L; 3.1 nmol/L, 11 nmol/L, 38 nmol/L, 130 nmol/L, 470 nmol/L, 1.6 μmol/L, 5.7 μmol/L and 20 μmol/L in duplicates). As positive inhibition control cells supplemented with 150 μM kynurenic acid were incubated in presence of 5 μM Staurosporin. Normalization was done by positive and negative controls.
Firefly luciferase and Renilla activity was determined by the DualGlo Luciferase Assay System (Promega, #2920).
Setting [3] is: Assay 2: AHR-luc Hum Agonism IC50 [M], no kynurenic acid, 20 hours, firefly luciferase.
Where [4] appears, read: read-out: Assay 2: AHR-luc Hum Agonism IC50, no kynurenic acid, 20 hours, firefly luciferase.

Where only a bound is given, the exact number is not on record here.

For `CC(CO)CNC(=O)c1cc(-c2ccc(Cl)cc2)nn(-c2cccc(F)c2)c1=O` (racemic) [Example 200, 6-(4-Chlorophenyl)-2-(3-fluorophenyl)-N-[(2RS)-3-hydroxy-2-methylpropyl]-3-oxo-2,3-dihydropyridazine-4-carboxamide], the IC50 against AHR [1] (setting [3]) is more than 2e-05 M; at AHR [2], 7.5e-08 M.

For `O=C(NC(CO)C1CCCO1)c1cc(-c2ccc(Cl)cc2)nn(-c2cccc(F)c2)c1=O` (single isomer, unassigned) [Example 316, 1,4-anhydro-5-({[6-(4-chlorophenyl)-2-(3-fluorophenyl)-3-oxo-2,3-dihydropyridazin-4-yl]carbonyl}amino)-2,3,5-trideoxyhexitol], the IC50 was more than 2e-05 M against AHR [1] (setting [3]) and 3.7e-07 M against AHR [2].

On to `C[C@H](O)CNC(=O)c1cc(-c2ccc(Cl)cc2)nn(-c2cccc(F)c2)c1=O` [Example 36, 6-(4-Chlorophenyl)-2-(3-fluorophenyl)-N-[(2S)-2-hydroxypropyl]-3-oxo-2,3-dihydropyridazine-4-carboxamide], for which the IC50 against AHR [1] (setting [3]) was more than 2e-05 M; on AHR [2] it was 2.95e-07 M.

As for `CCC(CC)C(O)CNC(=O)c1cc(-c2ccc(Cl)cc2)nn(-c2cccc(F)c2)c1=O` (racemic) [Example 233, 6-(4-Chlorophenyl)-N-[(2RS)-3-ethyl-2-hydroxypentyl]-2-(3-fluorophenyl)-3-oxo-2,3-dihydropyridazine-4-carboxamide], the IC50 against AHR [1] (setting [3]) was more than 2e-05 M; against AHR [2], 1.72e-07 M.

Consider `C[C@@H](CO)NC(=O)c1cc(-c2ccc(N(C)C)c(Cl)c2)nn(-c2cccc(F)c2)c1=O` [Example 377, 6-[3-chloro-4-(dimethylamino)phenyl]-2-(3-fluorophenyl)-N-[(2S)-1-hydroxypropan-2-yl]-3-oxo-2,3-dihydropyridazine-4-carboxamide], for which the IC50 at AHR [1] (setting [3]) was more than 2e-05 M; against AHR [2], 1.36e-07 M.

Consider `O=C(NC(CO)C1CCC1)c1cc(-c2ccc(Cl)cc2)nn(-c2cccc(F)c2)c1=O` (single isomer, unassigned; (+)) [Example 210, (+)-6-(4-Chlorophenyl)-N-(1-cyclobutyl-2-hydroxyethyl)-2-(3-fluorophenyl)-3-oxo-2,3-dihydropyridazine-4-carboxamide], for which the IC50 against AHR [1] (setting [3]) was more than 2e-05 M; against AHR [2] it was 4.12e-07 M.

For `CC(O)C(C)NC(=O)c1cc(-c2ccc(Cl)c(F)c2)nn(-c2cccc(F)c2)c1=O` (centres unmarked) [Example 289, 6-(4-Chloro-3-fluorophenyl)-2-(3-fluorophenyl)-N-(3-hydroxybutan-2-yl)-3-oxo-2,3-dihydropyridazine-4-carboxamide], the IC50 against AHR [1] (setting [3]) is more than 2e-05 M; against AHR [2], 1.44e-07 M.

In the case of `O=C(NCC(O)C(F)(F)F)c1cc(-c2ccc(Cl)c(F)c2)nn(-c2cccc(F)c2)c1=O` (single isomer, unassigned) [Example 284, 6-(4-chloro-3-fluorophenyl)-2-(3-fluorophenyl)-3-oxo-N-(3,3,3-trifluoro-2-hydroxypropyl)-2,3-dihydropyridazine-4-carboxamide], the IC50 at AHR [1] (setting [4]) was more than 2e-05 M; on AHR [2] it was 8.39e-07 M.

Regarding `O=C(NC[C@@H](O)CO)c1cc(-c2ccc(Cl)cc2)nn(-c2cccc(F)c2)c1=O` [Example 159, 6-(4-Chlorophenyl)-N-[(2R)-2,3-dihydroxypropyl]-2-(3-fluorophenyl)-3-oxo-2,3-dihydropyridazine-4-carboxamide], the figures for the IC50 against AHR [1] (setting [3]) and at AHR [2] were more than 2e-05 M and 2.84e-07 M, respectively.

As to `CC(C)C(O)CNC(=O)c1cc(-c2ccc(Cl)cc2)nn(-c2cccc(F)c2)c1=O` (centres unmarked) [Example 28, 6-(4-Chlorophenyl)-2-(3-fluorophenyl)-N-(2-hydroxy-3-methylbutyl)-3-oxo-2,3-dihydropyridazine-4-carboxamide], the IC50 against AHR [1] (setting [3]) is more than 2e-05 M; at AHR [2] it was 8.85e-08 M.

In the case of `O=C(NCC(O)C(F)(F)F)c1cc(-c2ccc(OC(F)F)cc2)nn(-c2cccc(F)c2)c1=O` (single isomer, unassigned) [Example 121, 6-[4-(Difluoromethoxy)phenyl]-2-(3-fluorophenyl)-3-oxo-N-(3,3,3-trifluoro-2-hydroxypropyl)-2,3-dihydropyridazine-4-carboxamide], the IC50 on AHR [1] (setting [3]) is more than 2e-05 M; at AHR [2], 3.42e-08 M.

For the molecule `CC(O)CNC(=O)c1cc(-c2ccc(Cl)cc2)nn(-c2cccc(F)c2)c1=O` (centres unmarked) [Example 34, 6-(4-Chlorophenyl)-2-(3-fluorophenyl)-N-(2-hydroxypropyl)-3-oxo-2,3-dihydropyridazine-4-carboxamide], the IC50 against AHR [1] (setting [3]) was more than 2e-05 M; against AHR [2] it was 1.88e-07 M.

Consider `O=C(NCC(O)C(F)(F)F)c1cc(-c2ccc(Cl)c(F)c2)nn(-c2cccc(F)c2)c1=O` (centres unmarked) [Example 282, 6-(4-chloro-3-fluorophenyl)-2-(3-fluorophenyl)-3-oxo-N-(3,3,3-trifluoro-2-hydroxypropyl)-2,3-dihydropyridazine-4-carboxamide], for which the IC50 on AHR [1] (setting [3]) is more than 2e-05 M; against AHR [2], 1.81e-07 M.

As to `COc1ccc(-c2cc(C(=O)NC(CO)C(F)(F)F)c(=O)n(-c3cccc(F)c3)n2)cc1` (centres unmarked) [Example 100, 2-(3-Fluorophenyl)-6-(4-methoxyphenyl)-3-oxo-N-(1,1,1-trifluoro-3-hydroxypropan-2-yl)-2,3-dihydropyridazine-4-carboxamide], the results for the IC50 against AHR [1] (setting [3]) and against AHR [2] were more than 2e-05 M and 1.09e-08 M, respectively.

As for `O=C(NC(CO)C1CCOC1)c1cc(-c2ccc(Cl)cc2)nn(-c2cccc(F)c2)c1=O` (single isomer, unassigned) [Example 40, 6-(4-Chlorophenyl)-2-(3-fluorophenyl)-N-[2-hydroxy-1-(tetrahydrofuran-3-yl)ethyl]-3-oxo-2,3-dihydropyridazine-4-carboxamide], the values for the IC50 at AHR [1] (setting [4]) and at AHR [2] were more than 2e-05 M and 1.17e-07 M, respectively.

Turning to `O=C(NC(CCO)C(F)(F)F)c1cc(-c2ccc(Cl)cc2)nn(-c2cccc(F)c2)c1=O` (racemic) [Example 340, 6-(4-chlorophenyl)-2-(3-fluorophenyl)-3-oxo-N-[(2RS)-1,1,1-trifluoro-4-hydroxybutan-2-yl]-2,3-dihydropyridazine-4-carboxamide], the IC50 at AHR [1] (setting [3]) is more than 2e-05 M; at AHR [2] it was 2.26e-08 M.

`C[C@H](CO)NC(=O)c1cc(-c2ccc(C(F)(F)F)cc2)nn(-c2cccc(F)c2)c1=O` [Example 238, 2-(3-Fluorophenyl)-N-[(2R)-1-hydroxypropan-2-yl]-3-oxo-6-[4-(trifluoromethyl)phenyl]-2,3-dihydropryridazine-4-carboxamide]: the IC50 at AHR [1] (setting [3]) was more than 2e-05 M; at AHR [2], 9.88e-08 M.

Take `O=C(NC(CCO)C(F)(F)F)c1cc(-c2ccc(Cl)cc2)nn(-c2cccc(F)c2)c1=O` (single isomer, unassigned; (-)) [Example 342, (−)-6-(4-chlorophenyl)-2-(3-fluorophenyl)-3-oxo-N-(1,1,1-trifluoro-4-hydroxybutan-2-yl)-2,3-dihydropyridazine-4-carboxamide]: the IC50 on AHR [1] (setting [3]) was more than 2e-05 M; at AHR [2], 4.46e-07 M.

As to `O=C(N[C@@H](CO)Cc1ccccc1)c1cc(-c2ccc(C(F)(F)F)cc2)nn(-c2cccc(F)c2)c1=O` [Example 252, 2-(3-Fluorophenyl)-N-[(2R)-1-hydroxy-3-phenylpropan-2-yl]-3-oxo-6-[4-(trifluoromethyl)phenyl]-2,3-dihydropyridazine-4-carboxamide], the IC50 at AHR [1] (setting [3]) was more than 2e-05 M; against AHR [2], 6.43e-06 M.

As for `O=C(NC(CO)Cc1ccncc1)c1cc(-c2ccc(Cl)cc2)nn(-c2cccc(F)c2)c1=O` (racemic) [Example 334, 6-(4-chlorophenyl)-2-(3-fluorophenyl)-N-[(2RS)-1-hydroxy-3-(pyridin-4-yl)propan-2-yl]-3-oxo-2,3-dihydropyridazine-4-carboxamide], the results for the IC50 on AHR [1] (setting [3]) and on AHR [2] were more than 2e-05 M and 1.09e-07 M, respectively.

For `CC(C)(O)C(O)CNC(=O)c1cc(-c2ccc(Cl)cc2)nn(-c2cccc(F)c2)c1=O` (racemic) [Example 322, 6-(4-chlorophenyl)-N-[(2RS)-2,3-dihydroxy-3-methylbutyl]-2-(3-fluorophenyl)-3-oxo-2,3-dihydropyridazine-4-carboxamide], the values for the IC50 at AHR [1] (setting [3]) and on AHR [2] were more than 2e-05 M and 1.14e-07 M, respectively.

Consider `CC(O)C(C)NC(=O)c1cc(-c2ccc(OC(F)F)cc2)nn(-c2cccc(F)c2)c1=O` (centres unmarked) [Example 140, 6-[4-(Difluoromethoxy)phenyl]-2-(3-fluorophenyl)-N-(3-hydroxybutan-2-yl)-3-oxo-2,3-dihydropyridazine-4-carboxamide], for which the IC50 at AHR [1] (setting [3]) was more than 2e-05 M; against AHR [2], 2.05e-07 M.

These data come from US11040035B2, “3-oxo-2,6-diphenyl-2,3-dihydropyridazine-4-carboxamides” (BAYER PHARMA AKTIENGESELLSCHAFT, priority 2016, dated 2021).
